Assays:
calf thymus DNA (CT-DNA) = assay: Calf thymus-DNA titration (UV-visible spectrum); format: binding
Description: A 5 μM solution of 4-T(CX)PyP was prepared in 10 mM tris buffer+1 mM EDTA (pH=8.0). To 2 mL of this solution in a quartz cuvette, 1 μL aliquots of a 1.89 mM solution of calf thymus DNA (CT-DNA) in 10 mM tris+1 mM EDTA were added. The concentration of CT-DNA was determined by UV-visible spectrum. After each addition, the cuvette was vortexed to ensure good mixing, and the UV-visible spectrum was recorded. […] Several intermediate spectra were omitted for clarity.
The porphyrin 2-T(CX)PyP was titrated in an analogous way to 4-T(CX)PyP, as described above. […] Presumably, the ortho carboxamide groups provide sufficient steric bulk to prevent association of the positively-charged pyridyl groups with the negatively-charged sugar phosphate backbone. Even when CT-DNA was added in large excess to the solution of porphyrin, a redshift of only […] was observed.

plasmid pBR322 = assay: Cleavage of plasmid DNA with manganese pyridyl porphyrins, agarose gel; details: 1 mM Mn porphyrin, 50 μg/mL plasmid, 10 mM or 25 mM oxone, 5 min
Description: Three forms of plasmid DNA are expected when Mn porphyrins interact with and cleave DNA, and they can be easily separated on an agarose gel. Uncleaved, supercoiled plasmid (Form I) will show the greatest mobility. In the event of a nick in the DNA, the supercoils will relax, and the open circular form of the plasmnid (Form II) will appear. Further oxidation will cleave the second strand of DNA as well, and leads to a linear form (Form III.) The relative electrophoretic mobilities are as follows: I>III>II.
Two concentrations of oxidant were used: 10 mM and 25 mM. All experiments were performed in 40 mM tris buffer+100 mM NaCl. […] Before reaction, porphyrin was allowed to incubate with plasmid for 30 min.
A typical reaction was performed as follows: to a solution of 1 mM manganese porphyrin and 50 μg/mL plasmid in buffer was added enough oxone to make a final concentration of 10 mM or 25 mM. (Volume of the entire reaction was 20 μL.) The reaction mixture was vortexed, then allowed to react for 5 min. HEPES buffer (100 mM) was added to stop the reaction.
Each sample was electrophoresed on a 1% agarose slab horizontal gel at 90V for 1 h at 24° C. in 40 mM tris-acetate (TAE) and 1 mM ETDA buffer. The agarose gel contained ethidium bromide (1 μg/mL) so that the lanes could be visualized by UV-vis, and the finished gel was photographed under UV illumination. Lanes 1-4 were run at 10 mM oxone, and lanes 5-8 were run at 25 mM oxone. The control lanes, C1 and C2, contained 10 mM and 25 mM oxone, respectively, but no porphyrin. […] The lane assignments include the following: lane 1: Mn 4-T(CX)PyP, lane 2: Mn 2-T(CX)PyP; lane 3, Mn 2-T(PEG3)PyP; lane 4: Mn 4-TMPyP; lane C1: plasmid+10 mM oxone; lane C2: Plasmid+25 mM oxone

4-Tetrakis(carboxamide)pyridyl Porphyrin [4-T(CX)PyP]
redshift of Soret band (Δλmax) (calf thymus DNA (CT-DNA); 5 μM porphyrin, 10 mM tris + 1 mM EDTA pH=8.0): 12 nm
binding constant to DNA (calf thymus DNA (CT-DNA); calculated from the titration): 7.99×10^6
association with DNA (in words) (calf thymus DNA (CT-DNA); from change in Soret band): both porphyrin intercalation into DNA and outside stacking of porphyrin along the DNA backbone

Mn(III) 2-tetrakis(carboxamide)pyridyl porphyrin [Mn 2-T(CX)PyP]
appearance of linear form of DNA (Form III) (plasmid pBR322): does not appear at all

Mn(III) 2-tetrakis(triethylene glycol monomethyl ether)pyridyl porphyrin [Mn 2-T(PEG3)PyP]
appearance of linear form of DNA (Form III) (plasmid pBR322): does not appear at all

Mn(III) 4-tetrakis(carboxamide)pyridyl porphyrin [Mn 4-T(CX)PyP]
degree of plasmid cleavage (plasmid pBR322): greatest degree of plasmid cleavage
